Reference: ChEMBL document CHEMBL1201862, “PubChem BioAssay data set” (2004)
The source made the active and inactive calls.

Assays:
cells = assay type: functional
[1] = THP-1 cell cytotoxicity, dose response, cytotoxicity control for non-replicating M. tuberculosis project (AID 489025); assay type: functional
[2] = microbe, parasite or virus in culture; assay type: functional; conditions: Mycobacterium tuberculosis
[3] = Vero E6 cell cytotoxicity, dose response, cytotoxicity control for non-replicating M. tuberculosis project, secondary assay (AID 492998); assay type: functional, VeroE6; conditions: Vero C1008
[4] = target: DNA dC->dU-editing enzyme APOBEC-3A (Homo sapiens, UniProt P31941); test: Dose Response confirmation of small molecule APOBEC3A DNA Deaminase Inhibitors via a fluorescence-based single-stranded DNA deaminase assay. [Related pubchem assays (depositor defined):AID493011, AID493024]; assay type: functional
[5] = target: DNA dC->dU-editing enzyme APOBEC-3G (Homo sapiens, UniProt Q9HC16); assay type: functional;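 also: Dose-response counterscreen measuring inhibition of APOBEC3G DNA deaminase activity, run while confirming APOBEC3A inhibitors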
[6] = target: T1, Runt-related transcription factor 1/Core-binding factor subunit beta (Homo sapiens, UniProt Q01196+Q13951); test: disruptors of Runt domain/CBFb-SMMHC interaction – biochemical, FRET, Cerulean-Runt, Venus-CBFb-SMMHC, uHTS, […] (AID 1434); assay type: protein assay
[7] = target: T1, Runt-related transcription factor 1/Core-binding factor subunit beta; test: Runt domain/CBFb-SMMHC interaction disruptors – biochemical, TR-FRET (AID 1438); assay type: protein assay
[8] = target: Peroxisome proliferator-activated receptor gamma/Nuclear receptor coactivator 3 (Homo sapiens, UniProt P37231); test: (§1) TR-FRET dose response biochemical High Throughput Screening assay for agonists of the steroid receptor coactivator 3 (SRC-3) recruitment by the peroxisome proliferator-activated receptor gamma (PPAR gamma): non-selective agonists. [Related pubchem assays: 1301 (Confirmation screen.), 1048 (Primary screen.)]; assay type: functional
[9] = target: Peroxisome proliferator-activated receptor gamma/Nuclear receptor coactivator 1 (Homo sapiens, UniProt P37231); test: as §1, with “1 (SRC-1)” for “3 (SRC-3)”, “assays (depositor defined):AID1300, AID1808, AID504735, AID631]” for “assays: 1301 (Confirmation screen.), 1048 (Primary screen.)]”; assay type: protein assay
[10] = target: Peroxisome proliferator-activated receptor gamma/Nuclear receptor coactivator 2 (Homo sapiens, UniProt P37231); test: TR-FRET dose response biochemical High Throughput Screening assay for agonists of the steroid receptor coactivator 2 (SRC-2) recruitment by the peroxisome proliferator-activated receptor gamma (PPAR gamma): non-selective agonists. [Related pubchem assays: 1297, 1032 ]; assay type: functional
HEK293 [11] = test: cells; assay type: functional, cell-based; conditions: Homo sapiens
HEK293 [12] = test: NOD2 signaling inhibitors in MDP-stimulated cells, cell-based, uHTS, luminescence (AID 2001); assay type: functional; conditions: Homo sapiens
[13] = target: T2, Microphthalmia-associated transcription factor (Homo sapiens, UniProt O75030); test: reducers of TRPM1 reporter luminescence, concentration series – cell-based, SK-MEL-5, cherry-picked, set 3, MITF inhibitor project, dose response (AID 493073); assay type: functional;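 also: SK-MEL-5 melanoma cells with luciferase driven by the MITF target TRPM1 promoter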
T2 sequence (O75030 whole entry): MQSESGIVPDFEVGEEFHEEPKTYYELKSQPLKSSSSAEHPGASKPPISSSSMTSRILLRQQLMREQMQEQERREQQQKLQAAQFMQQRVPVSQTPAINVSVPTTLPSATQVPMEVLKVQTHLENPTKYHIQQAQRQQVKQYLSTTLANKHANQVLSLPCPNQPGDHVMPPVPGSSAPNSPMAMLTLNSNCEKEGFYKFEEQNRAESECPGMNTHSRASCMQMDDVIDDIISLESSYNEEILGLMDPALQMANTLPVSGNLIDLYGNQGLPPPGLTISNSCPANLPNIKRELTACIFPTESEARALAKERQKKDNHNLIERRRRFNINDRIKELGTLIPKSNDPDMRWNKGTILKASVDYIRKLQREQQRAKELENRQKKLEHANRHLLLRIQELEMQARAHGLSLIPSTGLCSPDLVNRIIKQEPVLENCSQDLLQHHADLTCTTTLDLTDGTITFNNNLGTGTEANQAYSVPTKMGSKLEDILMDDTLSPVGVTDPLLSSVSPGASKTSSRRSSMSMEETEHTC

HEK293 [14] = test: cells; assay type: functional, cell-based; conditions: Homo sapiens; remark: listed apart in the source
HEK293 [15] = test: cells; assay type: functional, cell-based; conditions: Homo sapiens; remark: listed apart in the source
HEK293 [16] = test: inhibition of NOD1-driven NF-kB reporter – cell-based, luminescence, uHTS, primary screen (AID 1578); assay type: functional; conditions: Homo sapiens
[17] = target: Nucleotide-binding oligomerization domain-containing protein 2 (Homo sapiens, UniProt Q9HC29); test: inhibition of NOD2-driven NF-kB reporter – cell-based, luminescence, uHTS, HEK293 (AID 1566); assay type: functional
[18] = target: T3, Replicative DNA helicase DnaB (Mycobacterium tuberculosis, UniProt P9WMR3); test: DnaB intein splicing inhibitors, dose response, biochemical, cell-free fluorescence (AID 449749); assay type: functional
T3 sequence (P9WMR3 whole entry): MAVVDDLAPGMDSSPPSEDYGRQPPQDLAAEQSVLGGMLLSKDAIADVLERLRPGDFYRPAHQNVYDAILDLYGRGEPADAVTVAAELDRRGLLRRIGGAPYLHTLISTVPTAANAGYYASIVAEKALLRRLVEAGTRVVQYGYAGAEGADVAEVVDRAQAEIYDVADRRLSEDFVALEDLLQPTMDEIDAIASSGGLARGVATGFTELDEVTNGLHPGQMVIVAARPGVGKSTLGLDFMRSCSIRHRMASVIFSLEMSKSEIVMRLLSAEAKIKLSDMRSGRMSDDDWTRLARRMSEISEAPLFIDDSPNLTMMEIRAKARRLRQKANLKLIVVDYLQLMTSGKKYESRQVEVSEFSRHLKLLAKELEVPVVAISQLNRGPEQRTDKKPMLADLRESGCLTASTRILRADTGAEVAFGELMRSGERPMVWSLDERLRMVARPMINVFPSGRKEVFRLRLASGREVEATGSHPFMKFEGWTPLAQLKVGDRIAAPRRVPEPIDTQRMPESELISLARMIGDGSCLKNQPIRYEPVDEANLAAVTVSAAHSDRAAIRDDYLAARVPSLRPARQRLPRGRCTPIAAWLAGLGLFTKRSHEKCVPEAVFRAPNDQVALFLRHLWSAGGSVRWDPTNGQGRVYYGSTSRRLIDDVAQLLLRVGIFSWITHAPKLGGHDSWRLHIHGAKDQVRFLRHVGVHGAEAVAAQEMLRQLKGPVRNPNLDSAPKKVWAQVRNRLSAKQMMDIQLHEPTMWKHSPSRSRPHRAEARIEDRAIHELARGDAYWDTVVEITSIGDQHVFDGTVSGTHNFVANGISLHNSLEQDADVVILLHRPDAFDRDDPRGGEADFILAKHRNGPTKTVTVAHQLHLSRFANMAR

Protein RecA = target: T4, Protein RecA (Mycobacterium tuberculosis, UniProt P9WHJ3); test: Fluorescence Cell-Free Homogeneous Dose Retest to Identify Inhibitors of RecA-Intein Splicing Activity. [Related pubchem assays (depositor defined):AID2097, AID2223, AID489010, AID492950]; assay type: functional
T4 sequence (P9WHJ3 whole entry): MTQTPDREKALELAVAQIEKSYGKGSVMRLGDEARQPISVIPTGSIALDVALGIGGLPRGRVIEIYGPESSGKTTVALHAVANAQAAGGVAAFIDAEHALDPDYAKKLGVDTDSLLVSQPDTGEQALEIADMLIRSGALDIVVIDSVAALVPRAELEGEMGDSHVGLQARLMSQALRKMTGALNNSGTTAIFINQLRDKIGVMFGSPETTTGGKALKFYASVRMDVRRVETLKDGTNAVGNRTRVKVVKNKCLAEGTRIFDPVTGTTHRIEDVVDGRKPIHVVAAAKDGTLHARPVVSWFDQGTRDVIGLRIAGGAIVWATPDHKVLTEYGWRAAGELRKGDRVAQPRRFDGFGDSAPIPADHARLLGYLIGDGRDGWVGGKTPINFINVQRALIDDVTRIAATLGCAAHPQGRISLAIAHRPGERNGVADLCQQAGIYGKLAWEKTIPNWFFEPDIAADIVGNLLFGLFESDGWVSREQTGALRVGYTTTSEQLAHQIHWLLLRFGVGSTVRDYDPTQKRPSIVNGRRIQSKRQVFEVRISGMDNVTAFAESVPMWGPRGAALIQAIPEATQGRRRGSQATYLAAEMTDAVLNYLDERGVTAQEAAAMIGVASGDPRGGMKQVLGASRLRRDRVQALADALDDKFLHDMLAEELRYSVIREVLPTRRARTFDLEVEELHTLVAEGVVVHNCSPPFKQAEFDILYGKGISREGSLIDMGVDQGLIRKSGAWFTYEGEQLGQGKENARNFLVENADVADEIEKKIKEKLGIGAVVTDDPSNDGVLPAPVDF

[19] = target: Glucose-6-phosphate 1-dehydrogenase (Homo sapiens, UniProt P11413); test: inhibition of Homo sapiens G6PD, dose series – biochemical, fluorescence, selectivity assay for P. falciparum G6PD inhibitor project, dose response (AID 504792); assay type: functional
Nonstructural protein 1 = Nonstructural protein 1 (Influenza A virus, UniProt Q194T2); assay type: functional, Influenza A virus (A/California/07/2009(H1N1))
[20] = target: T5, Mannose-6-phosphate isomerase (Homo sapiens, UniProt P34949); test: MPI inhibition at elevated mannose 6-phosphate – biochemical, fluorescence intensity, high mannose 6-phosphate, primary screen (AID 1220)
T5 sequence (P34949 whole entry): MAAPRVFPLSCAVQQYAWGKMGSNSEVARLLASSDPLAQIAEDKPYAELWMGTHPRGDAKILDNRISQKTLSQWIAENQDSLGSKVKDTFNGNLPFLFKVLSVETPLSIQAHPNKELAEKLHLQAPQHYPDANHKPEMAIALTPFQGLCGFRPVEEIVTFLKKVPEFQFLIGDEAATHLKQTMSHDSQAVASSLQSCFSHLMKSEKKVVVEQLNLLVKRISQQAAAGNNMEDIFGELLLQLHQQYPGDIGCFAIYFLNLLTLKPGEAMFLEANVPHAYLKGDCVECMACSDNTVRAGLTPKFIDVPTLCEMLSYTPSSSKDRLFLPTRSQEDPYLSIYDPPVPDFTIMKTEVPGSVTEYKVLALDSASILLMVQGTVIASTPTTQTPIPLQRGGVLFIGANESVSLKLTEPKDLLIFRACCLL

[21] = target: T5, Mannose-6-phosphate isomerase; test: MPI enzyme activity inhibition – biochemical, fluorescence intensity, coupled assay, primary screen (AID 1209)

T1 sequence (Q01196 whole entry, the tested form may be a part): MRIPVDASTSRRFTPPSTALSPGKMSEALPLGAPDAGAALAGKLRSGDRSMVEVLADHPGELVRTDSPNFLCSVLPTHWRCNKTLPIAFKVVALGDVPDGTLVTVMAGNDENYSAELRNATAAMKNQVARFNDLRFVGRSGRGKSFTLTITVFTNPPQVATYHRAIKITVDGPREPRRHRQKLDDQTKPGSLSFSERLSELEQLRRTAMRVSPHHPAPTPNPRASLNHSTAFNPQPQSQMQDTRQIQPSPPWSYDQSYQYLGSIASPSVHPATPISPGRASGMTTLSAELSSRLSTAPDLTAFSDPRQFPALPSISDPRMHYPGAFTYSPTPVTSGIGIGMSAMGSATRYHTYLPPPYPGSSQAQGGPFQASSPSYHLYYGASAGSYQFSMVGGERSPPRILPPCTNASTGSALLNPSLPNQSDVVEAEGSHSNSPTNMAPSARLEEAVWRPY
T1 sequence (Q13951 whole entry, the tested form may be a part): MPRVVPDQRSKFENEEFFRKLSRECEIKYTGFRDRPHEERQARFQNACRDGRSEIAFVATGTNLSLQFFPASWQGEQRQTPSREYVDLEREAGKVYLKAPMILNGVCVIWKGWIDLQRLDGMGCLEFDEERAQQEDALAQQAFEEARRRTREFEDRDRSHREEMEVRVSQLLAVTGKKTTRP
Chain of Peroxisome proliferator-activated receptor gamma/Nuclear receptor coactivator 1 (P37231 whole entry): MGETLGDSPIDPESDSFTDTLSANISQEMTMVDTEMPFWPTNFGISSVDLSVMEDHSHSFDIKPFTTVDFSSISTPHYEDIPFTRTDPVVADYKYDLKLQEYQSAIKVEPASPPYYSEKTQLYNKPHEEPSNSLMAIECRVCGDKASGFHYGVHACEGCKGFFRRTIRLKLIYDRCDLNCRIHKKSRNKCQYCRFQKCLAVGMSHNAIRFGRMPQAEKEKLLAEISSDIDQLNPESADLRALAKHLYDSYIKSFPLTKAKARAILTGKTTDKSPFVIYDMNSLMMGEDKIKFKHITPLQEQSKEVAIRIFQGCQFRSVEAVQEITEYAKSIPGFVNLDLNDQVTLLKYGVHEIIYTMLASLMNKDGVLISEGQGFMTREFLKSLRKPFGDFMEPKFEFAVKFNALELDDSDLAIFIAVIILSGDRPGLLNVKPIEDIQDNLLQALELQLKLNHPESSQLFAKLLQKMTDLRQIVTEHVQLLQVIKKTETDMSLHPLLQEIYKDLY
Chain of Peroxisome proliferator-activated receptor gamma/Nuclear receptor coactivator 1 (Q15788 whole entry, further chain): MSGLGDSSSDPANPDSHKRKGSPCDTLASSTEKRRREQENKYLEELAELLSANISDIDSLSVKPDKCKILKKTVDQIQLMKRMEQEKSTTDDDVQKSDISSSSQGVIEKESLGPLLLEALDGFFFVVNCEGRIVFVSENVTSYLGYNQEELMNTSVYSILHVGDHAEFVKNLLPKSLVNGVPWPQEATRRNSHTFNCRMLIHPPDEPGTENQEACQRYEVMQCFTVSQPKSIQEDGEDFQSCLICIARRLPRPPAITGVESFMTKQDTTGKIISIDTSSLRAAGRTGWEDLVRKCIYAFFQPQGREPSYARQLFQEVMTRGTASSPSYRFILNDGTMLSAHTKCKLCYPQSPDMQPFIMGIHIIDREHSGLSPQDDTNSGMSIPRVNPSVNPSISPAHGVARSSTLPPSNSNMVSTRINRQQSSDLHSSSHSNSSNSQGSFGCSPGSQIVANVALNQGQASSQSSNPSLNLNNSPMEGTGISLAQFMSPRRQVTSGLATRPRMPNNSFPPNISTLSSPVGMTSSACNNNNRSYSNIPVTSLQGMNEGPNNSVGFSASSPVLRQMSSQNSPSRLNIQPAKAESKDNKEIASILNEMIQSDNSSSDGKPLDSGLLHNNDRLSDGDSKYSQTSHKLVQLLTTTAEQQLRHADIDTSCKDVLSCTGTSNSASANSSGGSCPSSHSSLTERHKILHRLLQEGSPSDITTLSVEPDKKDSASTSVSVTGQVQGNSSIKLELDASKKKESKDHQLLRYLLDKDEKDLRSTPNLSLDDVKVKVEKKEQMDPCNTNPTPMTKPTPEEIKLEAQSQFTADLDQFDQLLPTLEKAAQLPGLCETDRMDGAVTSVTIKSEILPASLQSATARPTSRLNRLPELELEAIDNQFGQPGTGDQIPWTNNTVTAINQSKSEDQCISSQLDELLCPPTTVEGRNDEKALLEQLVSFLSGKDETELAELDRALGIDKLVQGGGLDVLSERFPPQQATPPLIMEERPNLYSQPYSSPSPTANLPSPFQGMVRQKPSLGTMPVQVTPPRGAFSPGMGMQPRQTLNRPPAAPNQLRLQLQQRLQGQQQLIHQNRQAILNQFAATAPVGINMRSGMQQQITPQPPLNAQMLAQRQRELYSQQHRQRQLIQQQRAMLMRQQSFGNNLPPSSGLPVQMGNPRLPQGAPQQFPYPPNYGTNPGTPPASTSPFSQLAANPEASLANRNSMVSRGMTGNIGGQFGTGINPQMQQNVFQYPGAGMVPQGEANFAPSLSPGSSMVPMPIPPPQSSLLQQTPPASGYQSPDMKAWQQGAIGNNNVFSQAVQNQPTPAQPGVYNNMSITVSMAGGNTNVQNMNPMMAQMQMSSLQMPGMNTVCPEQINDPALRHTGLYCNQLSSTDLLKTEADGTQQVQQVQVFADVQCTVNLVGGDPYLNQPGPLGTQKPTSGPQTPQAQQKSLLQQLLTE
Chain of Peroxisome proliferator-activated receptor gamma/Nuclear receptor coactivator 3 (P37231 whole entry): as the sequence (P37231 whole entry) above
Chain of Peroxisome proliferator-activated receptor gamma/Nuclear receptor coactivator 3 (Q9Y6Q9 whole entry, further chain): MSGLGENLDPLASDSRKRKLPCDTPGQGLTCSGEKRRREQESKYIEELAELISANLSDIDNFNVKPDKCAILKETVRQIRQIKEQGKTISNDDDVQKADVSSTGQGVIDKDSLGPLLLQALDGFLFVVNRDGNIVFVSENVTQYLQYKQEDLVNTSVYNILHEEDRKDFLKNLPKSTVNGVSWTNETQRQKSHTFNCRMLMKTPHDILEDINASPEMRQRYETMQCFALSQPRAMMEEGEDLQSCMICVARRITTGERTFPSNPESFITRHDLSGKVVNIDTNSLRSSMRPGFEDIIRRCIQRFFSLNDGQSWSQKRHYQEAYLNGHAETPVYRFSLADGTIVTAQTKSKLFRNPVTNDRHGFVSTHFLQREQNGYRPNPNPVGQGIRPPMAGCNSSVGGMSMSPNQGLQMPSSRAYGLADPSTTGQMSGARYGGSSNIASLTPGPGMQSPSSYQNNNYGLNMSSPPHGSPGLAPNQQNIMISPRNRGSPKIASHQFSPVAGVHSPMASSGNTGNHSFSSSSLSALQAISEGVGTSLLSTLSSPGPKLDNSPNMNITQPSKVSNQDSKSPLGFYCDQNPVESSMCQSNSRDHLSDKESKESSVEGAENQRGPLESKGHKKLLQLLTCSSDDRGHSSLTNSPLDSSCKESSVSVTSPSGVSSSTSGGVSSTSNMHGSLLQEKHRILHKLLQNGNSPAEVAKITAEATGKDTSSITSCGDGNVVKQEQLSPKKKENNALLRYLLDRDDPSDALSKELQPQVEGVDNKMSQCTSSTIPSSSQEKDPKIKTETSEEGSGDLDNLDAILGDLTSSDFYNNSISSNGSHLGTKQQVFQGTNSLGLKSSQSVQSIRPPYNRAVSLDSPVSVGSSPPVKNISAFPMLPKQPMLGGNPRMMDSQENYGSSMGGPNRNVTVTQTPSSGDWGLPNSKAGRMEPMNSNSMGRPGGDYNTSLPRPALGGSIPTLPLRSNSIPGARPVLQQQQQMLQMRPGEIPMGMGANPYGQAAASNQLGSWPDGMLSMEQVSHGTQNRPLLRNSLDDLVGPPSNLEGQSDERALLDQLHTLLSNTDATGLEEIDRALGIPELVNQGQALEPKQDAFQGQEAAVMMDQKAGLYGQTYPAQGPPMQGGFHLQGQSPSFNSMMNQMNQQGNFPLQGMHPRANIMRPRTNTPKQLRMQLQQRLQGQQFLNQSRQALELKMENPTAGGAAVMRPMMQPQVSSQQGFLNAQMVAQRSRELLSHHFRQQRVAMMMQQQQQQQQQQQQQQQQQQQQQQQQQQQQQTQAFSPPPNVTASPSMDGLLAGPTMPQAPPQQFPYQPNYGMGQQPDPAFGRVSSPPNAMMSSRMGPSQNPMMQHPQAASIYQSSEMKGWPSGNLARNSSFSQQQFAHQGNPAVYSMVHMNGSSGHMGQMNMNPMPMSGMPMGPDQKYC
Chain of DNA dC->dU-editing enzyme APOBEC-3G (Q9HC16 whole entry, the tested form may be a part): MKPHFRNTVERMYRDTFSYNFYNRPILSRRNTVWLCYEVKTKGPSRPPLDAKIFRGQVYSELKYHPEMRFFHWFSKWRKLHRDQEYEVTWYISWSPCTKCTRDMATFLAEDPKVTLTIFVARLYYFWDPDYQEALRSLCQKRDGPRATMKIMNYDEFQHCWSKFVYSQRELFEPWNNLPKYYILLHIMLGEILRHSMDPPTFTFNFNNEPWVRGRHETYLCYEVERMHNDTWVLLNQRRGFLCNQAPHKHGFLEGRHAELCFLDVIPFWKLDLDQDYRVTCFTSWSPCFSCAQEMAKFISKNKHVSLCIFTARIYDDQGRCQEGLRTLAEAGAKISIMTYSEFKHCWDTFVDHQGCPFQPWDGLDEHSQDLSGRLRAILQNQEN

## FC(F)(Cl)c1nnc2ccc(Cl)nn12
cells
  IC50: 0.75 µM (active)
[1]
  CC50: 10.8 µM (active)
[2]
  CC50: 16.5 µM (active)
[3]
  CC50: 16.7 µM (active)

## CCN1C(NCCCOC(C)C)=N[C@@H](CCc2ccccc2)[C@H](C(=O)NCCCOC(C)C)[C@H]1C
[4]
  IC50: 2.91 µM (active)
[5]
  IC50: 3.6 µM (active)

## CCCOc1ccc(C2C(C(=O)OC)=CN(CCOC)C=C2C(=O)OC)cc1
[6]
  IC50: 2.22 µM (active)
[7]
  IC50: > 100 µM (inactive)

## COc1ccc(N(CC(=O)NCCSc2ccc(C)cc2)S(=O)(=O)c2ccccc2)c(OC)c1
[4]
  IC50: 10.9 µM (active)
[5]
  IC50: 9.82 µM (active)

## Cn1c(-[n+]2c(-c3ccccc3)cc(-c3ccccc3)cc2-c2ccccc2)nc2cc([N+](=O)[O-])ccc21
[4]
  IC50: 19.1 µM (active)
[5]
  IC50: 22.7 µM (active)

## Cc1cccc[n+]1C1C(c2ccccc2)C(C#N)=C([C-](C#N)C#N)NC1(O)C1CC1 (centres undefined)
[8]
  EC50: > 79.4 µM (not active)
[9]
  EC50: > 79.4 µM (inactive)
[10]
  EC50: > 79.4 µM (not active)

## Oc1ccc(/N=C/c2ccc(-c3cccs3)s2)cc1
[6]
  IC50: 4.2 µM (active)
[7]
  IC50: > 100 µM (inactive)
[8]
  EC50: 73 µM (not active)
[9]
  EC50: 8.81 µM (active)
[10]
  EC50: 12 µM (not active)

## O=C(CCl)N1N=C(c2ccco2)CC1c1cccs1 (centres undefined)
HEK293 [11]
  IC50: > 20 µM (inactive)
HEK293 [12]
  IC50: 4.77 µM (active)
[13]
  AC50: 7.84 µM (active)
HEK293 [14]
  IC50: 5.32 µM (active)
HEK293 [15]
  IC50: > 20 µM (inactive)
HEK293 [16]
  EC50: 7.24 µM (active)
[17]
  EC50: 16.7 µM (active)
[18]
  AC50: 92.5 µM (active)
Protein RecA
  EC50: 2.16 µM (active)

## C/[N+]([O-])=C\c1ccc2cccc(O)c2n1
cells
  IC50: 11.6 µM (active)
[19]
  IC50: > 80 µM (inactive)
[1]
  CC50: 35 µM (active)
Nonstructural protein 1
  IC50: 1.68 µM (active)
[20]
  IC50: 11.8 µM (active)
[21]
  IC50: 16.4 µM (active)
[3]
  CC50: 15.6 µM (active)

## Cc1cc2nc(-c3ccc(SCc4ccccc4C#N)nc3)[nH]c2cc1C
[8]
  EC50: > 79.4 µM (not active)
[9]
  EC50: > 79.4 µM (inactive)
[10]
  EC50: > 79.4 µM (not active)
